Laboratory results reported in US11781119B2, “Variant forms of urate oxidase and use thereof” (Horizon Therapeutics USA, Inc., priority 2005, dated 2023).

Experiments:
Format in all cases: biochemical
Conditions in all cases: uric acid; sodium borate buffer, pH 9.2
[1] = target: T1, Pig uricase, native, commercial preparation (Sigma) (Sus scrofa, UniProt P16164)
T1 sequence (P16164 1-304): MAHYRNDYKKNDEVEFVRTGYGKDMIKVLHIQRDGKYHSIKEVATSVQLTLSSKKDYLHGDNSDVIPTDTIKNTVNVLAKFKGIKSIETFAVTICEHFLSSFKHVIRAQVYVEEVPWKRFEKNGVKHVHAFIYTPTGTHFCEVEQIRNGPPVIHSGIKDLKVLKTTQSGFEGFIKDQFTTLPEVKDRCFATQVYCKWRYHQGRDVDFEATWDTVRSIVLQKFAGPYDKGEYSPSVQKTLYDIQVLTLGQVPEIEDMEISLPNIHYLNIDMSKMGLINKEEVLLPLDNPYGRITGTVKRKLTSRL
Description: (§1) Activity of uricase was measured by a UV method. […] Uricase potency is expressed in activity units per mg protein (U/mg).
(§2) The absorbance change with time (ΔA292 per minute) was derived from the linear portion of the curve.
(§3) The specific activity (potency) of uricase was calculated by dividing the activity in U/ml with protein concentration in mg/ml.

[2] = system: Pig-baboon chimera (PBC) uricase, recombinant, pig uricase codons 1-225 joined in-frame to codons 226-304 of baboon uricase
Source text: Pig-baboon chimera (PBC) uricase was constructed in order to gain higher expression, stability, and activity of the recombinant gene. […] The PBC uricase cDNA consists of the pig uricase codons 1-225 joined in-frame to codons 226-304 of baboon uricase.

[3] = target: T2, Aspergillus flavus uricase, native, commercial preparation (Merck) (Aspergillus flavus, UniProt Q00511)
T2 sequence (Q00511 1-302): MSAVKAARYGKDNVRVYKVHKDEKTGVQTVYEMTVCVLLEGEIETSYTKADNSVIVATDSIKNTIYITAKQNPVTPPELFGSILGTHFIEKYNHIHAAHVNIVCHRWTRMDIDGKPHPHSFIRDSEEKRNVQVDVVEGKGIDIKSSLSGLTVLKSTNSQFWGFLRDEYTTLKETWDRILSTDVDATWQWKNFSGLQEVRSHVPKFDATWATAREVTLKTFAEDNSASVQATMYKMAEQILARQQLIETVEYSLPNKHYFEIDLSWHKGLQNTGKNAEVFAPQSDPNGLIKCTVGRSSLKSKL
Description: as §1, §2, §3

[4] = system: Pig-baboon chimera (PBC) uricase variant PBC-ΔNC, recombinant, N-terminal six residues and C-terminal tri-peptide removed, SEQ ID NO. 12
Description: as §1, §2, §3

`O=c1[nH]c(=O)c2[nH]c(=O)[nH]c2[nH]1` [Uric Acid, uric acid] was tested, and the Km [1] was 5.85 µM, the Km [2] was 4.87 µM and the Km [3] was 23.5 µM. It also gave a Km [4] of 4.3 µM.
